From patent US20140357512A1, “HISTONE DEACETYLASE (HDAC) BIOMARKERS IN MULTIPLE MYELOMA” (priority 2013, published 2014)

System: human myeloma cell line MM.1S
Assay: SILAC acetylated-lysine peptide profiling, HDAC inhibitor vs DMSO (light/heavy ratio)
Format: cell-based
Excerpt: An embodiment of the invention comprises utilizing the SILAC method in order to quantitate changes in protein expression between two or more populations of cells. The SILAC method is a technique based on mass spectrometry that detects differences in protein abundance among samples using non-radioactive isotopic labeling. The SILAC method is known in the art, and described in detail in Ong et al., “Stable Isotope Labeling by Amino Acids in Cell Culture, SILAC, as a Simple and Accurate Approach to Expression Proteomics”, Molecular & Cellular Proteomics, vol. 1, pp. 376-386 (2002), which is incorporated herein by reference in its entirety.
Briefly, the SILAC method involves growing two populations of cells in cell culture. The first population of cells is grown in growth media containing normal amino acids (“normal media”). The second population of cells is grown in media lacking a standard essential amino acid (such as lysine), but is then supplemented with a non-radioactive, isotopically labeled form of that essential amino acid (such as lysine labeled with ^13C atoms, rather than normal ^12C atoms), which is called “heavy media”. When the two populations of cells are each growing in the medium, they incorporate the amino acids into all of their proteins. The growth of cells maintained in the heavy media is no different from that in normal media. All peptides containing the heavy amino acids are heavier than their normal counterparts. The cells from each of the two populations of cells are lysed. The lysates from each of the two cell populations are then combined. The combined cell lysates are then analyzed by mass spectrometry. Pairs of chemically identical peptides of different stable isotope composition can be differentiated in a mass spectrometer due to their difference in mass. The ratio of peak intensities in the mass spectrum for such peptide pairs reflects the abundance ratio for the two proteins.
This example describes SILAC studies that were performed to compare the effects of three different HDAC inhibitors (Compound A, Compound B, and tubastatin A) to a control on a human multiple myeloma cell line. The HDAC inhibitors were also compared amongst themselves to determine differences in their effects.
A human myeloma cell line MM.1S was grown using either ^12C (light) or ^13C (heavy) lysine containing culture medium. The “heavy” cells were treated with DMSO as the control, and the “light” cells were treated with a single HDAC inhibitor at 37° C. for 6 hours. The heavy and light cells were lysed, and the lysates were mixed in 1:1 ratio and digested with the protease trypsin. The acetylated lysine containing peptides (due to the action of the HDAC inhibitor) in the digested peptide pool were captured by a non-specific anti-acetylated lysine antibody cocktail (the antibodies identify both light and heavy acetylated peptides), and subjected to mass spectrometry analysis in order to identify thousands of individual peptides.
Thousands of peptides were identified in pairs (^12C and ^13C) due to their known mass differences. The amino acid sequence and quantitative ratio (Light/Heavy) of a given peptide in two differentially treated cell lysates were then determined and annotated with their possible protein (gene) sources.
As stated above, three HDAC inhibitors (Compound A, Compound B, and Tubastatin A) were used. Thus, the SILAC method was performed three times, with a different HDAC inhibitor compared to a control each time. Accordingly, there are three pairs of quantitative data in the table below, i.e., Compound A:DMSO, Compound B:DMSO, and Tubastatin A:DMSO. A cut-off of 1.30 fold of change (increase or decrease) was then used to determine “changed” or “+” in the table, and any peptides with a fold of change less than 1.3 fold were determined to be “unchanged” or “0” in the table. Those peptides that were not identified were marked as “NA” in the table. […]

O=C(NO)c1cnc(NC2(c3cccc(F)c3)CCCCC2)nc1 [Compound B, 2-((1-(3-fluorophenyl)cyclohexyl)amino)-N-hydroxypyrimidine-5-carboxamide]
light to heavy ratio (L/H ratio), log 2 scale, acetylated peptide VGDK(ac)[…] (SEQ ID NO: 773) (10 kDa heat shock protein mitochondrial [70], gene HSPE1, drug:DMSO): 0.00 | light to heavy ratio (L/H ratio) of acetylated peptide IQEVLK(ac)HAR (SEQ ID NO: 264) (39S ribosomal protein L20 mitochondrial [26], MRPL20, drug:DMSO): 0.00 log 2 | light to heavy ratio (L/H ratio) of acetylated peptide KDVHMPK(ac)HPELADK (SEQ ID NO: 353) (40S ribosomal protein S10 [31], RPS10, drug:DMSO): 0.56 log 2 | light to heavy ratio (L/H ratio) of acetylated peptide NK(ac)[…] (SEQ ID NO: 559) (40S ribosomal protein S17 [49], gene RPS17, RPS17L, inhibitor:DMSO): 0.00 log 2 | light to heavy ratio (L/H ratio) of acetylated peptide IDK(ac)PILK (SEQ ID NO: 506) (60S ribosomal protein L8 [177], gene RPL8, inhibitor:DMSO): 0.00 log 2 | light to heavy ratio (L/H ratio) of acetylated peptide GPLDK(ac)WR (SEQ ID NO: 622) (60S ribosomal protein L10-like [208], gene RPL10L, inhibitor:DMSO): 0.00 log 2 | light to heavy ratio (L/H ratio), log 2 scale, acetylated peptide YMVK(ac)SCGK (SEQ ID NO: 811) (60S ribosomal protein L10 [78], gene SNORA70, RPL10, drug:DMSO): 0.00 | light to heavy ratio (L/H ratio), log 2 scale, acetylated peptide VDEVK(ac)STIK (SEQ ID NO: 805) (60S ribosomal protein L10a [152], gene RPL10A, drug:DMSO): 0.00 | light to heavy ratio (L/H ratio) of acetylated peptide VITEEEK(ac)NFK (SEQ ID NO: 522) (60S ribosomal protein L13 [174], gene RPL13, inhibitor:DMSO): 0.00 log 2 | light to heavy ratio (L/H ratio) of acetylated peptide K(ac)FAYLGR (SEQ ID NO: 614) (60S ribosomal protein L13a [134], gene SNORD32A, RPL13A, SNORD33, SNORD34, inhibitor:DMSO): 0.00 log 2 | light to heavy ratio (L/H ratio), log 2 scale, acetylated peptide LAHEVGWK(ac)[…] (SEQ ID NO: 812) (60S ribosomal protein L13a [148], gene SNORD32A, RPL13A, SNORD33, SNORD34, drug:DMSO): 0.00 | light to heavy ratio (L/H ratio) of acetylated peptide GHK(ac)FHHTIGGSR (SEQ ID NO: 519) (60S ribosomal protein L15 [179], gene RPL15, inhibitor:DMSO): 0.00 log 2 | light to heavy ratio (L/H ratio), log 2 scale, acetylated peptide SFVK(ac)[…] (SEQ ID NO: 770) (60S ribosomal protein L27 [73], gene RPL27, drug:DMSO): 0.00 | light to heavy ratio (L/H ratio), log 2 scale, acetylated peptide YSVDIPLDK(ac)TVVNK (SEQ ID NO: 807) (60S ribosomal protein L27 [93], gene RPL27, drug:DMSO): 0.00 | light to heavy ratio (L/H ratio) of acetylated peptide NCSSFLIK(ac)R (SEQ ID NO: 558) (60S ribosomal protein L28 [19], gene RPL28, inhibitor:DMSO): 0.00 log 2 | light to heavy ratio (L/H ratio) of acetylated peptide IHGVGFK(ac)K (SEQ ID NO: 542) (60S ribosomal protein L31 [39], gene RPL31, inhibitor:DMSO): 0.00 log 2 | light to heavy ratio (L/H ratio), log 2 scale, acetylated peptide LNK(ac)AVWAK (SEQ ID NO: 808) (60S ribosomal protein L31 [70], gene RPL31, drug:DMSO): 0.00 | light to heavy ratio (L/H ratio) of acetylated peptide LWSK(ac)AIFAGYK (SEQ ID NO: 538) (60S ribosomal protein L35a [8], gene RPL35A, inhibitor:DMSO): 0.00 log 2 | light to heavy ratio (L/H ratio) of acetylated peptide KIEISQHAK(ac)YTCSFCGK (SEQ ID NO: 351) (60S ribosomal protein L37a [36], RPL37A, drug:DMSO): 0.41 log 2 | light to heavy ratio (L/H ratio) of acetylated peptide VMEHFIK(ac)LYK (SEQ ID NO: 276) (78 kDa glucose-regulated protein [268], HSPA5, drug:DMSO): 0.00 log 2 | light to heavy ratio (L/H ratio) of acetylated peptide AK(ac)[…] (SEQ ID NO: 266) (78 kDa glucose-regulated protein [326], HSPA5, drug:DMSO): 0.00 log 2 | light to heavy ratio (L/H ratio) of acetylated peptide FK(ac)[…] (SEQ ID NO: 333) (116 kDa U5 small nuclear ribonucleoprotein component [790], EFTUD2, drug:DMSO): −0.99 log 2 | L/H ratio of acetylated peptide ((ac)AQLGK(ac)LLK (SEQ ID NO: 421), NEDD8-activating enzyme E1 regulatory subunit [6], NAE1): 0.70 log 2 | L/H ratio of acetylated peptide ((ac)MEDYTK(ac)IEK (SEQ ID NO: 374), Isoform 2 of Cyclin-dependent kinase 1 [6], CDK1): −0.51 log 2 | light to heavy ratio (L/H ratio) of acetylated peptide, log 2 scale ((ac)SIGVPIK(ac)[…] (SEQ ID NO: 224), Small nuclear ribonucleoprotein Sm D3 [8], SNRPD3): 0.00 | L/H ratio of acetylated peptide ((ac)SNMEK(ac)HLFNLK (SEQ ID NO: 376), Charged multivesicular body protein 1b [6], CHMP1B): 0.85 log 2 | L/H ratio of acetylated peptide ((ac)SSNECFK(ac)CGR (SEQ ID NO: 379), Isoform 1 of Cellular nucleic acid-binding protein [8], CNBP): −0.82 log 2 | light to heavy ratio (L/H ratio) of acetylated peptide, log 2 scale ((ac)SVFGK(ac)LFGAGGGK (SEQ ID NO: 143), Charged multivesicular body protein 4b [6], CHMP4B): 0.00 | L/H ratio of acetylated peptide ((ac)[…](ac)DLK (SEQ ID NO: 437), Isoform 2 of Prothymosin alpha [15], PTMA, MIR1244-3, MIR1244-2, MIR1244-1): 0.61 log 2 | L/H ratio of acetylated peptide ((ac)[…](ac)SAR (SEQ ID NO: 464), Voltage-dependent anion-selective channel protein 1 [12], VDAC1): −0.78 log 2 | L/H ratio of acetylated peptide (ACK(ac)LAIR (SEQ ID NO: 463), Transitional endoplasmic reticulum ATPase [696], VCP): −0.58 log 2 | L/H ratio of acetylated peptide NLQK(ac)EVIHR (SEQ ID NO: 125) (ACOX1 [504], log 2 scale, drug vs DMSO): 0.00
